The source of these data is ChEMBL document CHEMBL1123256, “Neuroleptics from the 4a,9b-trans-2,3,4,4a,5,9b-hexahydro-1H-pyrido[4,3-b]indole series. 3. Carboxamidoalkyl derivatives” (J Med Chem, 1986).

The structures appear in SMILES notation.

For test [1], the target named is Dopamine receptor. As to the kind of experiment: Compound was tested in vitro for its ability to displace [3H]spiroperidol from labeled Dopamine receptor of corpus striatum. It is filed as functional.
The test system of test [2] is Rattus norvegicus. In words: Compound was tested in vivo for its ability to antagonize the stereotypy in rats induced by d-amphetamine sulfate 5 hr later of the treatment; value ranges from 0.1-0.032. It is filed as functional.
In test [3] the target is Dopamine receptor.
Description: Compound was tested in vitro for its ability to displace [3H]spiroperidol from labeled dopamine receptors of corpus striatum
The subject of test [4] is Rattus norvegicus. In words: Compound was tested in vivo for its ability to antagonize the stereotypy in rats induced by d-amphetamine sulfate 1 hr later of the treatment; value ranges from 0.1-0.32. The class given is functional.
Test [5] deals with Dopamine receptor. This is another data set of the same source.
Description: Ability to displace [3H]spiroperidol from labeled Dopamine receptor of corpus striatum
The subject of test [6] is Rattus norvegicus. In words: Compound was tested in vivo for its ability to antagonize the stereotypy in rats induced by d-amphetamine sulfate 1 hr later of the treatment; value ranges from 0.03-0.1. It is filed as functional.
Test [7] concerns Rattus norvegicus. In words: Compound was tested in vivo for its ability to antagonize the stereotypy in rats induced by d-amphetamine sulfate 24 hr later of the treatment; value ranges from 0.32-1.0. The class given is functional.
Test [8] deals with Rattus norvegicus. As to the kind of experiment: Compound was tested in vivo for its ability to antagonize the stereotypy in rats induced by d-amphetamine sulfate 5 h later of the treatment; value ranges from 0.32-1.0. The class given is functional.

As to `CC(=O)NCCCCCCCN1CC[C@@H]2C(C1)c1cc(F)ccc1N2c1ccc(F)cc1.Cl` (some centres not stated), the IC50 (as a rule, the concentration needed to halve the response being measured) in test [1] is 9 nM.

For `Cl.O=C1CCCCN1CCCCN1CC[C@@H]2C(C1)c1cc(F)ccc1N2c1ccc(F)cc1` (some centres not stated), the ED50 (in general, the midpoint of the dose-response relation) in test [2] stood at 0.032 mg/kg. Besides, in test [3], the IC50 worked out at 6.2 nM.

In test [4], `Cl.N#CCCCN1CC[C@@H]2C(C1)c1cc(F)ccc1N2c1ccc(F)cc1` (some centres not stated) yielded a median effective dose (ED50) of 0.1 mg/kg.

`CC(C(=O)CN1CC[C@@H]2C(C1)c1cc(F)ccc1N2c1ccc(F)cc1)c1ncco1.Cl` (some centres not stated) came in with an IC50 in test [5] of 10 nM.

As to `CC(=O)NCCCCCN1CC[C@@H]2C(C1)c1cc(F)ccc1N2c1ccc(F)cc1.Cl` (some centres not stated), the IC50 in test [5] stood at 9 nM.

Compound `CCOC(=O)NCCCCN1CC[C@@H]2C(C1)c1cc(F)ccc1N2c1ccc(F)cc1.Cl` (some centres not stated) displayed an IC50 in test [5] of 11 nM.

Consider `CC(=O)NCCCN1CC[C@@H]2C(C1)c1cc(F)ccc1N2c1ccc(F)cc1.Cl` (some centres not stated), for which the ED50 came to 0.03 mg/kg in test [6] and 0.32 mg/kg in test [7]. In test [5], this compound came in with an IC50 of 10 nM.

Turning to `Cl.O=C1c2ccccc2C(=O)N1CCCCN1CC[C@@H]2C(C1)c1cc(F)ccc1N2c1ccc(F)cc1` (some centres not stated), the IC50 in test [3] is recorded as 27 nM.

For the compound `CC(=O)NCCCCN1CC[C@@H]2C(C1)c1cc(F)ccc1N2c1ccc(F)cc1.Cl` (some centres not stated), the IC50 in test [5] was found to be 15 nM.

For `Cl.O=c1oc2ccccc2n1CCCCN1CC[C@@H]2C(C1)c1cc(F)ccc1N2c1ccc(F)cc1` (some centres not stated), the 50% effect level in test [8] (ED50) was put at a dose of 0.32 mg/kg. Besides, the IC50 in test [3] is reported as 28 nM.

Consider `CC(=O)NCCCCCCN1CC[C@@H]2C(C1)c1cc(F)ccc1N2c1ccc(F)cc1.Cl` (some centres not stated), for which the IC50 in test [5] stood at 8 nM.

Compound `Cl.NCCCCN1CC[C@@H]2C(C1)c1cc(F)ccc1N2c1ccc(F)cc1` (some centres not stated) yielded an IC50 in test [5] of 28 nM.

In test [5], `CC(=O)NCCN1CC[C@@H]2C(C1)c1cc(F)ccc1N2c1ccc(F)cc1.Cl` (some centres not stated) registered an IC50 of 16 nM.
